One molecule from patent publication US20260218130A1, “METHOD FOR CULTURING ANIMAL CELLS” (Ajinomoto Co., Inc., priority 2023, published 2026) can be followed below.

The test system of one assay is bovine muscle stem cells. As to the kind of experiment: Proliferation of bovine muscle stem cells in serum-free medium. In kind it is cell-based. To be noted: FIG. 1. From the text: Muscle tissue was collected from edible bovine shank meat, and CD56-positive cells were isolated using a Magnetic-Activated Cell Sorting (MACS) system to obtain bovine muscle stem cells. The bovine muscle stem cells obtained in (1-1) were suspended in a serum medium. As the serum medium, a medium was used in which Advanced DMEM (Thermo Fisher Scientific, Cat No. 12491015) was supplemented with 20% FBS (Thermo Fisher Scientific, Cat No. 10270106), 10% horse serum (Thermo Fisher Scientific, Cat No. 16050-130), and 1% GlutaMAX™ Supplement (Thermo Fisher Scientific, Cat No. 35050061). The cell suspension was seeded into a 12-well plate (BD FALCON, Cat #353046) coated with 1 μg/cm^2 fibronectin (Corning, Cat #F2006) at a cell density of 25,000 cells/0.2 mL, and the medium was changed every other day. On the fourth day of culture, the cells were subcultured into a hinokitiol-containing serum-free medium, a hinokitiol- and iron-containing serum-free medium, an iron-containing serum-free medium, a transferrin- and iron-containing serum-free medium, a transferrin-containing serum-free medium, or a serum-free medium not containing hinokitiol and transferrin, and the medium was changed every other day. […] Cell counting and subculturing were performed every 4 days, and the growth rate for two consecutive passages from day 4 to day 12 was calculated.

Assay [1] concerns porcine subcutaneous preadipocytes (PSPA). Put plainly: Proliferation of porcine subcutaneous preadipocytes (PSPA) in serum-free medium. In kind it is cell-based. To be noted: hinokitiol 0.25 or 0.5 μM + FeSO4•7H2O 1 μM, serum-free medium (transferrin-free); 4 days; FIG. 2. As to the method: As the porcine subcutaneous preadipocytes (PSPA), an adipose precursor cell line derived from porcine fetal subcutaneous tissue, described in Nakajima, et al. Biochem Biophys Res Commun. 2003 Sep. 26; 309(3): 702-8, was obtained from RIKEN RCB and used. The porcine subcutaneous preadipocytes (PSPA) from (2-1) were cultured using a serum medium. As the serum medium, a medium was used in which DMEM (Gibco, Cat No. 10313-021) was supplemented with 10% FBS (Thermo Fisher Scientific, Cat No. 10270106), 1% GlutaMAX™ Supplement (Thermo Fisher Scientific, Cat No. 35050061), and 1% Penicillin-Streptomycin (Nacalai Tesque, Cat No. 09367-34). As the serum-free medium, a medium based on the aforementioned E8 medium was used. PSPA were seeded into a 12-well plate at a density of 10,000 cells/cm^2, and the cells were subcultured into a serum medium, a transferrin-containing serum-free medium, or a hinokitiol- and iron-containing serum-free medium (transferrin-free), with medium exchange performed every other day. Cell counting was performed 4 days after the start of culturing, and the fold increase in cell number was calculated.

Another assay concerns HEK293 cells. As to the kind of experiment: Proliferation of HEK293 cells in suspension culture system. In kind it is cell-based, human. To be noted: hinokitiol 500 nM in Basal 10 or in-house medium, 20 days, FIG. 3. As to the method:
As HEK293, Viral Production Cells 2.0 (Thermo Fisher Scientific: A49784), which is a clonal cell line derived from the HEK293 cell line, was used. The HEK293 cell line is widely known as a cell line derived from human embryonic kidney.
Using a 125 mL Erlenmeyer flask (VIOLAMO, SEF125V), Viral Production Cells 2.0, a clonal cell line derived from the HEK293 cell line, were seeded into 30 ml of Viral Production Medium (Thermo Fisher Scientific: A4817901) supplemented with GlutaMAX™ Supplement (Thermo Fisher Scientific, Cat No. 35050061) to a final concentration of 4 mM.
The cells were cultured with agitation in an incubator set at 37° C. and 8% CO2, and were subcultured twice. Thereafter, the cells were subcultured and cultured in a medium based on 30 mL of Basal 10 (Ajinomoto Healthy Supply, Co., Inc., CELLIST™ Basal media BASAL10) or an in-house medium supplemented with hinokitiol to a final concentration of 500 nM. The process of measuring the viable cell count every 3 or 4 days using a Vi-CELL BLU Cell Viability Analyzer (Beckman Coulter) before subculturing was repeated, and the cells were cultured for a total of 20 days.

The test system of assay [2] is CD8-positive human T cells. Put plainly: Proliferation of CD8-positive human T cells in serum-free medium. To be noted: hinokitiol 0.49 or 0.0049 μM, cell count after 7 days, FIG. 4. Type of assay: cell-based. As to the method:
CD3 Monoclonal Antibody (Thermo Fisher Scientific, Cat No. 16-0037-85) was mixed with PBS and added to a 24-well plate. After incubating at 37° C. for 1 hour, the plate was washed 3 times with PBS. As a base medium, CTS™ OpTmizer™ T Cell Expansion (Thermo Fisher Scientific, Cat No. A104851) supplemented with CTS™ Immune Cell SR (Thermo Fisher Scientific, Cat No. A2596101), 200 mM L-glutamine (Thermo Fisher Scientific, Cat No. 25030081), P/S/Amphotericin B (Fujifilm-Wako, Cat No. 161-23181), and IL2 (PeproTech, Cat No. 200-02) was used. In the coated 24-well plates, medium groups with hinokitiol added as shown in Table 3 were prepared, and CD8+ T cells (LONZA, Cat No. 2W-300) were cultured in each respective group. A cell count was performed after 7 days, and the proliferation rate was calculated.

For `CC(C)c1cccc(=O)c(O)c1` [hinokitiol], the “cell proliferation-promoting effect on enhancing the iron concentration” value with bovine muscle stem cells (hinokitiol 0.03 or 0.30 μM + FeSO4•7H2O 1.0 or 10.1 μM, serum-free medium, in some cases) is listed as “further improved”. In the assay with bovine muscle stem cells (hinokitiol 0.03 or 0.30 μM in E8-based serum-free medium, transferrin-free, day 4 to day 12), the “cell proliferation (fold increase, growth rate for two consecutive passages)” value is “cell proliferation-promoting effect”. The “cell proliferation (fold increase in cell number)” value in assay [1] is “cell proliferation-promoting effect”. Besides, in the assay on HEK293 cells, the “cell proliferation (viable cell count)” value is listed as “cell proliferation-promoting effect”. For the same molecule, the “cell proliferation (fold increase, proliferation rate)” value in assay [2] is recorded as “cell proliferation-promoting effect”.
